Measurements as given in patent US20240300943A1, “NOVEL SALTS OF HETEROCYCLIC COMPOUND AS PROTEIN KINASE INHIBITOR AND USES THEREOF” (HK INNO.N CORPORATION, priority 2021, published 2024).

Experiments:
Assay type in all cases: physicochemical
[1] = Hygroscopicity evaluation; conditions: for Individual related material: in %
Text: Samples were placed in a glass desiccator in which relative humidity was adjusted to 33%, 53%, 75%, and 93%, and then stored for two and four weeks to be evaluated.

[2] = Photostability evaluation
Text: Samples were packaged in LPDE bag, and stored under visible (1.2M Lux-h), UV (200 W-h/m2) and UV+visible conditions, respectively, and then evaluated.

[3] = Measurement of water solubility; conditions: saturated solution shaken at room temperature for 24 hours
Method: A liquid phase was taken out of the solution and filtered using a 0.22 μm PVDF filter. The filtered liquid phase was diluted 10-fold for LC analysis.
LC analysis was performed by the following method.

[4] = Physical stability evaluation under stress conditions
Method: In order to evaluate physical stability, samples were packaged in the form of ((LPDE+N2)+silica gel 1 g+LDPE)+Al-Bag, and stored under stress conditions (60° C.±2° C./80% RH±5%) for 2/4 weeks before evaluation.
In table 2, initial is a result measured after preparation of salts, and S2W and S4W are results measured after two and four weeks while being exposed to stress conditions, respectively.

In the case of `C[C@@H]1CN(C(=O)CC#N)CC=C1c1cc(NC(=O)C2CC2)nc2[nH]ccc12` [Example 1, (S)—N-(4-(1-(2-cyanoacetyl)-3-methyl-1,2,3,6-tetrahydropyridin-4-yl)-1H-pyrrolo[2,3-b]pyridin-6-yl)cyclopropanecarboxamide], the Total related material ([1]; Initial) is reported as 0.66%, the Water ([1]; Initial) is reported as 3.33% and the Individual related material ([1]; Initial) is reported as 0.13. For the same compound, the Total related material ([1]; relative humidity 33%, 2 W) was 0.68%, the Water ([1]; relative humidity 33%, 2 W) was 5.22% and the Individual related material ([1]; relative humidity 33%, 2 W) was 0.12. It also gave a Total related material ([1]; relative humidity 33%, 4 W) of 0.62%, a Water ([1]; relative humidity 33%, 4 W) of 5.32% and an Individual related material ([1]; relative humidity 33%, 4 W) of 0.11. It also gave a Total related material ([1]; relative humidity 53%, 2 W) of 0.78%, a Water ([1]; relative humidity 53%, 2 W) of 5.21% and an Individual related material ([1]; relative humidity 53%, 2 W) of 0.12. It also gave a Total related material ([1]; relative humidity 53%, 4 W) of 0.78%, a Water ([1]; relative humidity 53%, 4 W) of 5.38% and an Individual related material ([1]; relative humidity 53%, 4 W) of 0.12. For the same compound, the Total related material ([1]; relative humidity 75%, 2 W) was 0.69%, the Water ([1]; relative humidity 75%, 2 W) was 5.24% and the Individual related material ([1]; relative humidity 75%, 2 W) was 0.12. It also gave a Total related material ([1]; relative humidity 75%, 4 W) of 0.68%, a Water ([1]; relative humidity 75%, 4 W) of 5.41% and an Individual related material ([1]; relative humidity 75%, 4 W) of 0.11. It also gave a Total related material ([1]; relative humidity 93%, 2 W) of 0.89%, a Water ([1]; relative humidity 93%, 2 W) of 5.37% and an Individual related material ([1]; relative humidity 93%, 2 W) of 0.12. The Total related material ([1]; relative humidity 93%, 4 W) was 0.94%, the Water ([1]; relative humidity 93%, 4 W) was 5.43% and the Individual related material ([1]; relative humidity 93%, 4 W) was 0.13. It also gave an Individual related material ([2]; Initial) of 0.13%, a Total related material ([2]; Initial) of 0.66% and an Individual related material ([2]; Solid, Control) of 0.11%. For the same compound, the Total related material ([2]; Solid, Control) was 0.55%, the Individual related material ([2]; Solid, UV (200 W-h/m2)) was 0.36% and the Total related material ([2]; Solid, UV (200 W-h/m2)) was 2.31%. For the same compound, the Individual related material ([2]; Solid, UV + Vis) was 0.81%, the Total related material ([2]; Solid, UV + Vis) was 4.74% and the Individual related material ([2]; Solid, UV + Vis Control) was 0.12%. It also gave a Total related material ([2]; Solid, UV + Vis Control) of 0.65%, an Individual related material ([2]; Solid, Vis (1.2M Lux-h)) of 0.66% and a Total related material ([2]; Solid, Vis (1.2M Lux-h)) of 3.83%. The Water solubility [3] was 5900 µg/mL, the C.I quantitative ([4]; Initial) was 9.2% and the “Content (anhydride, as anhydride)” value ([4]; Initial) was 97.9%. The Moisture ([4]; Initial) was 3.33%, the “Purity: Individual related material” value ([4]; Initial) was 0.13% and the “Purity: Total related material” value ([4]; Initial) was 0.66%. For the same compound, the C.I quantitative ([4]; S2W: 2 weeks at 60° C./80% RH) was 9.1%, the “Content (anhydride, as anhydride)” value ([4]; S2W: 2 weeks at 60° C./80% RH) was 98.0% and the “Purity: Individual related material” value ([4]; S2W: 2 weeks at 60° C./80% RH) was 0.13%. The “Purity: Total related material” value ([4]; S2W: 2 weeks at 60° C./80% RH) was 1.08%, the C.I quantitative ([4]; S4W: 4 weeks at 60° C./80% RH) was 9.1% and the “Content (anhydride, as anhydride)” value ([4]; S4W: 4 weeks at 60° C./80% RH) was 98.6%. The “Purity: Individual related material” value ([4]; S4W: 4 weeks at 60° C./80% RH) was 0.34% and the “Purity: Total related material” value ([4]; S4W: 4 weeks at 60° C./80% RH) was 1.28%.
Work on `C[C@@H]1CN(C(=O)CC#N)CC=C1c1cc(NC(=O)C2CC2)nc2[nH]ccc12` [Example 2, (S)—N-(4-(1-(2-cyanoacetyl)-3-methyl-1,2,3,6-tetrahydropyridin-4-yl)-1H-pyrrolo[2,3-b]pyridin-6-yl)cyclopropanecarboxamide] yielded a Total related material ([1]; Initial) of 0.56%, a Water ([1]; Initial) of 3.93% and an Individual related material ([1]; Initial) of 0.12. For the same compound, the Total related material ([1]; relative humidity 33%, 2 W) was 0.53%, the Water ([1]; relative humidity 33%, 2 W) was 3.70% and the Individual related material ([1]; relative humidity 33%, 2 W) was 0.11. The Total related material ([1]; relative humidity 33%, 4 W) was 0.55%, the Water ([1]; relative humidity 33%, 4 W) was 3.94% and the Individual related material ([1]; relative humidity 33%, 4 W) was 0.10. The Total related material ([1]; relative humidity 53%, 2 W) was 0.66%, the Water ([1]; relative humidity 53%, 2 W) was 3.62% and the Individual related material ([1]; relative humidity 53%, 2 W) was 0.12. For the same compound, the Total related material ([1]; relative humidity 53%, 4 W) was 0.59%, the Water ([1]; relative humidity 53%, 4 W) was 3.96% and the Individual related material ([1]; relative humidity 53%, 4 W) was 0.11. It also gave a Total related material ([1]; relative humidity 75%, 2 W) of 0.58%, a Water ([1]; relative humidity 75%, 2 W) of 3.78% and an Individual related material ([1]; relative humidity 75%, 2 W) of 0.11. For the same compound, the Total related material ([1]; relative humidity 75%, 4 W) was 0.61%, the Water ([1]; relative humidity 75%, 4 W) was 3.93% and the Individual related material ([1]; relative humidity 75%, 4 W) was 0.11. For the same compound, the Total related material ([1]; relative humidity 93%, 2 W) was 0.54%, the Water ([1]; relative humidity 93%, 2 W) was 3.71% and the Individual related material ([1]; relative humidity 93%, 2 W) was 0.11. The Total related material ([1]; relative humidity 93%, 4 W) was 0.62%, the Water ([1]; relative humidity 93%, 4 W) was 3.94% and the Individual related material ([1]; relative humidity 93%, 4 W) was 0.10. For the same compound, the Individual related material ([2]; Initial) was 0.12%, the Total related material ([2]; Initial) was 0.56% and the Individual related material ([2]; Solid, Control) was 0.11%. It also gave a Total related material ([2]; Solid, Control) of 0.44%, an Individual related material ([2]; Solid, UV (200 W-h/m2)) of 0.11% and a Total related material ([2]; Solid, UV (200 W-h/m2)) of 0.6%. For the same compound, the Individual related material ([2]; Solid, UV + Vis) was 0.12%, the Total related material ([2]; Solid, UV + Vis) was 0.91% and the Individual related material ([2]; Solid, UV + Vis Control) was 0.12%. It also gave a Total related material ([2]; Solid, UV + Vis Control) of 0.48%, an Individual related material ([2]; Solid, Vis (1.2M Lux-h)) of 0.11% and a Total related material ([2]; Solid, Vis (1.2M Lux-h)) of 0.69%. The Water solubility [3] was 5900 µg/mL, the C.I quantitative ([4]; Initial) was 18.1% and the “Content (anhydride, as anhydride)” value ([4]; Initial) was 100.7%. The Moisture ([4]; Initial) was 3.93%, the “Purity: Individual related material” value ([4]; Initial) was 0.12% and the “Purity: Total related material” value ([4]; Initial) was 0.56%. The C.I quantitative ([4]; S2W: 2 weeks at 60° C./80% RH) was 17.8%, the “Content (anhydride, as anhydride)” value ([4]; S2W: 2 weeks at 60° C./80% RH) was 101.4% and the Moisture ([4]; S2W: 2 weeks at 60° C./80% RH) was 3.93%. The “Purity: Individual related material” value ([4]; S2W: 2 weeks at 60° C./80% RH) was 0.11%, the “Purity: Total related material” value ([4]; S2W: 2 weeks at 60° C./80% RH) was 0.63% and the C.I quantitative ([4]; S4W: 4 weeks at 60° C./80% RH) was 17.8%. For the same compound, the “Content (anhydride, as anhydride)” value ([4]; S4W: 4 weeks at 60° C./80% RH) was 99.2%, the Moisture ([4]; S4W: 4 weeks at 60° C./80% RH) was 3.79% and the “Purity: Individual related material” value ([4]; S4W: 4 weeks at 60° C./80% RH) was 0.14%. The “Purity: Total related material” value ([4]; S4W: 4 weeks at 60° C./80% RH) was 0.58%.
For `C[C@@H]1CN(C(=O)CC#N)CC=C1c1cc(NC(=O)C2CC2)nc2[nH]ccc12` [Example 5, (S)—N-(4-(1-(2-cyanoacetyl)-3-methyl-1,2,3,6-tetrahydropyridin-4-yl)-1H-pyrrolo[2,3-b]pyridin-6-yl)cyclopropanecarboxamide], the Individual related material ([2]; Initial) was 0.14%, the Total related material ([2]; Initial) was 0.64% and the Individual related material ([2]; Solid, Control) was 0.65%. It also gave a Total related material ([2]; Solid, Control) of 0.65%, an Individual related material ([2]; Solid, UV (200 W-h/m2)) of 1% and a Total related material ([2]; Solid, UV (200 W-h/m2)) of 1%. The Individual related material ([2]; Solid, UV + Vis) was 1.96%, the Total related material ([2]; Solid, UV + Vis) was 1.96% and the Individual related material ([2]; Solid, UV + Vis Control) was 0.78%. The Total related material ([2]; Solid, UV + Vis Control) was 0.78%, the Individual related material ([2]; Solid, Vis (1.2M Lux-h)) was 1.72% and the Total related material ([2]; Solid, Vis (1.2M Lux-h)) was 1.72%. For the same compound, the Water solubility [3] was 4600 µg/mL.
Compound `C[C@@H]1CN(C(=O)CC#N)CC=C1c1cc(NC(=O)C2CC2)nc2[nH]ccc12` [Example 6, (S)—N-(4-(1-(2-cyanoacetyl)-3-methyl-1,2,3,6-tetrahydropyridin-4-yl)-1H-pyrrolo[2,3-b]pyridin-6-yl)cyclopropanecarboxamide] has a Water solubility [3] of 900 µg/mL.
